For 15 compounds, MIC and ED50 results are on record in ChEMBL document CHEMBL4304773, “Nitroimidazole-containing compounds and their antibacterial and antitubercular activities” (2019).

Converted amounts (≈) assume the structure as drawn.

Common to all, as to assay type: functional
The subject of one assay is Acinetobacter baumannii. Briefly: Antibacterial activity against Acinetobacter baumannii.
The test system of assay [1] is Escherichia coli. Briefly: Antibacterial activity against Escherichia coli.
The test system of assay [2] is Staphylococcus aureus. Briefly: Antibacterial activity against Staphylococcus aureus ATCC 25923.
Assay [3] has as its system Escherichia coli. Briefly: Antibacterial activity against Escherichia coli ATCC 25922.
The test system of another assay is Enterococcus faecalis. Briefly: Antibacterial activity against Enterococcus faecalis.
The test system of assay [4] is Staphylococcus aureus. Briefly: Antibacterial activity against methicillin-resistant Staphylococcus aureus N315.
Assay [5] has as its system Pseudomonas aeruginosa. Briefly: Antibacterial activity against Pseudomonas aeruginosa.
Assay [6] concerns Staphylococcus aureus. Briefly: Antibacterial activity against Staphylococcus aureus ATCC 29213.
Another assay has as its system Klebsiella pneumoniae. Briefly: Antibacterial activity against Klebsiella pneumoniae.
Assay [7] concerns Pseudomonas aeruginosa. Briefly: Antibacterial activity against Pseudomonas aeruginosa ATCC 27853.
The subject of assay [8] is Staphylococcus aureus. Briefly: Antibacterial activity against Staphylococcus aureus.
For another assay, the system named is Candida albicans. Briefly: Antifungal activity against Candida albicans.
The next assay concerns Bacillus subtilis. Briefly: Antibacterial activity against Bacillus subtilis.
Assay [9] concerns Escherichia coli. Briefly: Antibacterial activity against Escherichia coli infected in mouse.

As a reminder, the MIC is the lowest concentration found to suppress growth. Turning to `Cc1ncc([N+](=O)[O-])n1CC(O)CN1C(=O)c2cccc3c(N4CCCCC4)ccc(c23)C1=O` (stereo not given), the minimum inhibitory concentration (MIC) was in the range of 69 to 1140 µM (≈ 32 to 528 µg/mL) with Acinetobacter baumannii; 69 to 1140 µM in the assay with Escherichia coli [1]; 69 to 1140 µM (≈ 32 to 528 µg/mL) with Staphylococcus aureus [2]; 69 to 1140 µM (≈ 32 to 528 µg/mL) in the assay on Escherichia coli [3]; 69 to 1140 µM (≈ 32 to 528 µg/mL) against Enterococcus faecalis; 69 to 1140 µM (≈ 32 to 528 µg/mL) in the assay with Staphylococcus aureus [4]. The minimum inhibitory concentration (MIC) in the assay with Pseudomonas aeruginosa [5] lay in the range of 69 to 1140 µM; in the assay on Staphylococcus aureus [6], 69 to 1140 µM (≈ 32 to 528 µg/mL); against Klebsiella pneumoniae it was 69 to 1140 µM (≈ 32 to 528 µg/mL); against Pseudomonas aeruginosa [7], 69 to 1140 µM (≈ 32 to 528 µg/mL).
Turning to `CC(=O)N1N=C(Cn2c([N+](=O)[O-])cnc2C)OC1c1ccc(C)cc1` (stereo not given), the MIC with Escherichia coli [1] fell in the range of 0.25 to 0.5 mg/L; against Staphylococcus aureus [8], 0.25 to 0.5 mg/L (≈ 0.728 to 1.46 µM); in the assay on Pseudomonas aeruginosa [5] it was 0.25 to 0.5 mg/L; against Candida albicans, 0.25 to 0.5 mg/L (≈ 0.728 to 1.46 µM); against Bacillus subtilis, 0.25 to 0.5 mg/L (≈ 0.728 to 1.46 µM).
Take `CCCCN1CCN(c2ccc3c4c(cccc24)C(=O)N(CC(O)Cn2c([N+](=O)[O-])cnc2C)C3=O)CC1` (stereo not given): the MIC in the assay with Acinetobacter baumannii was 13 to 1020 µM (≈ 6.77 to 531 µg/mL); against Escherichia coli [1], 13 to 1020 µM; with Staphylococcus aureus [2], 13 to 1020 µM (≈ 6.77 to 531 µg/mL); against Escherichia coli [3], 13 to 1020 µM (≈ 6.77 to 531 µg/mL); in the assay on Enterococcus faecalis, 13 to 1020 µM (≈ 6.77 to 531 µg/mL); against Staphylococcus aureus [4], 13 to 1020 µM (≈ 6.77 to 531 µg/mL). For the same compound, the minimum inhibitory concentration (MIC) against Pseudomonas aeruginosa [5] lay within 13 to 1020 µM; against Staphylococcus aureus [6], 13 to 1020 µM (≈ 6.77 to 531 µg/mL); with Klebsiella pneumoniae, 13 to 1020 µM (≈ 6.77 to 531 µg/mL); in the assay with Pseudomonas aeruginosa [7] it was 13 to 1020 µM (≈ 6.77 to 531 µg/mL).
For the compound `Cc1ncc([N+](=O)[O-])n1CC(O)CN1C(=O)c2cccc3c(N4CCN(CCO)CC4)ccc(c23)C1=O` (stereo not given), the MIC against Acinetobacter baumannii is 13 to 1020 µM (≈ 6.61 to 519 µg/mL); against Escherichia coli [1], 13 to 1020 µM; against Staphylococcus aureus [2] it was 13 to 1020 µM (≈ 6.61 to 519 µg/mL); in the assay with Escherichia coli [3], 13 to 1020 µM (≈ 6.61 to 519 µg/mL); with Enterococcus faecalis, 13 to 1020 µM (≈ 6.61 to 519 µg/mL); in the assay with Staphylococcus aureus [4] it was 13 to 1020 µM (≈ 6.61 to 519 µg/mL). The minimal inhibitory concentration (MIC) in the assay with Pseudomonas aeruginosa [5] fell in the range of 13 to 1020 µM; against Staphylococcus aureus [6], 13 to 1020 µM (≈ 6.61 to 519 µg/mL); against Klebsiella pneumoniae it was 13 to 1020 µM (≈ 6.61 to 519 µg/mL); in the assay with Pseudomonas aeruginosa [7] it was 13 to 1020 µM (≈ 6.61 to 519 µg/mL).
The ED50 is the midpoint of the dose-response relation. Read a low ED50 as greater potency. Compound `CCOC(=O)c1cn(CC)c2cc(N3CCN(CCn4c([N+](=O)[O-])cnc4C)CC3)c(F)cc2c1=O` showed an ED50 in the assay with Escherichia coli [9] of 3.5 to 13.2 mg/kg.
Consider `NC1CCN(c2c(F)cc3c(=O)c(C(=O)O)cn(C4CC4)c3c2Cl)C1` (stereo not given) [CLINAFLOXACIN], for which the MIC against Acinetobacter baumannii was 5 to 88 µM (≈ 1.83 to 32.2 µg/mL); with Escherichia coli [1], 5 to 88 µM; against Staphylococcus aureus [2], 5 to 88 µM (≈ 1.83 to 32.2 µg/mL); against Escherichia coli [3], 5 to 88 µM (≈ 1.83 to 32.2 µg/mL); against Enterococcus faecalis, 5 to 88 µM (≈ 1.83 to 32.2 µg/mL); in the assay on Staphylococcus aureus [4], 5 to 88 µM (≈ 1.83 to 32.2 µg/mL). Besides, the minimum inhibitory concentration (MIC) against Pseudomonas aeruginosa [5] is 5 to 88 µM; against Staphylococcus aureus [6] it was 5 to 88 µM (≈ 1.83 to 32.2 µg/mL); against Klebsiella pneumoniae it was 5 to 88 µM (≈ 1.83 to 32.2 µg/mL); against Pseudomonas aeruginosa [7], 5 to 88 µM (≈ 1.83 to 32.2 µg/mL).
`CCOC(=O)c1cn(CC)c2nc(N3CCN(CCn4c([N+](=O)[O-])cnc4C)CC3)c(F)cc2c1=O` came in with an ED50 in the assay with Escherichia coli [9] of 3.5 to 13.2 mg/kg.
As to `Cc1ncc([N+](=O)[O-])n1CC(O)CN1C(=O)c2cccc3c(N4CCNCC4)ccc(c23)C1=O` (stereo not given), the minimum inhibitory concentration (MIC) against Acinetobacter baumannii fell in the range of 69 to 1140 µM (≈ 32 to 530 µg/mL); against Escherichia coli [1] it was 69 to 1140 µM; in the assay with Staphylococcus aureus [2], 69 to 1140 µM (≈ 32 to 530 µg/mL); with Escherichia coli [3], 69 to 1140 µM (≈ 32 to 530 µg/mL); against Enterococcus faecalis, 69 to 1140 µM (≈ 32 to 530 µg/mL); against Staphylococcus aureus [4], 69 to 1140 µM (≈ 32 to 530 µg/mL). Also, the MIC against Pseudomonas aeruginosa [5] fell in the range of 69 to 1140 µM; in the assay on Staphylococcus aureus [6], 69 to 1140 µM (≈ 32 to 530 µg/mL); with Klebsiella pneumoniae it was 69 to 1140 µM (≈ 32 to 530 µg/mL); in the assay with Pseudomonas aeruginosa [7] it was 69 to 1140 µM (≈ 32 to 530 µg/mL).
The compound `CCn1cc(C(=O)O)c(=O)c2cc(F)c(N3CCN(CCn4c([N+](=O)[O-])cnc4C)CC3)nc21` gave an ED50 in the assay with Escherichia coli [9] of 3.5 to 13.2 mg/kg.
As for `C#CCN1CCN(c2ccc3c4c(cccc24)C(=O)N(CC(O)Cn2c([N+](=O)[O-])cnc2C)C3=O)CC1` (stereo not given), the MIC with Acinetobacter baumannii lay in the range of 13 to 1020 µM (≈ 6.53 to 513 µg/mL); against Escherichia coli [1] it was 13 to 1020 µM; in the assay with Staphylococcus aureus [2] it was 13 to 1020 µM (≈ 6.53 to 513 µg/mL); against Escherichia coli [3], 13 to 1020 µM (≈ 6.53 to 513 µg/mL); in the assay with Enterococcus faecalis, 13 to 1020 µM (≈ 6.53 to 513 µg/mL); in the assay on Staphylococcus aureus [4], 13 to 1020 µM (≈ 6.53 to 513 µg/mL). Besides, the MIC lay in the range of 13 to 1020 µM in the assay with Pseudomonas aeruginosa [5], 13 to 1020 µM (≈ 6.53 to 513 µg/mL) with Staphylococcus aureus [6], 13 to 1020 µM (≈ 6.53 to 513 µg/mL) against Klebsiella pneumoniae and 13 to 1020 µM (≈ 6.53 to 513 µg/mL) against Pseudomonas aeruginosa [7].
With `C=CCN1CCN(c2ccc3c4c(cccc24)C(=O)N(CC(O)Cn2c([N+](=O)[O-])cnc2C)C3=O)CC1` (stereo not given), the minimal inhibitory concentration (MIC) in the assay on Acinetobacter baumannii lay within 13 to 1020 µM (≈ 6.56 to 515 µg/mL); against Escherichia coli [1], 13 to 1020 µM; against Staphylococcus aureus [2], 13 to 1020 µM (≈ 6.56 to 515 µg/mL); with Escherichia coli [3], 13 to 1020 µM (≈ 6.56 to 515 µg/mL); against Enterococcus faecalis, 13 to 1020 µM (≈ 6.56 to 515 µg/mL); against Staphylococcus aureus [4], 13 to 1020 µM (≈ 6.56 to 515 µg/mL). The minimal inhibitory concentration (MIC) is 13 to 1020 µM with Pseudomonas aeruginosa [5], 13 to 1020 µM (≈ 6.56 to 515 µg/mL) against Staphylococcus aureus [6], 13 to 1020 µM (≈ 6.56 to 515 µg/mL) against Klebsiella pneumoniae and 13 to 1020 µM (≈ 6.56 to 515 µg/mL) against Pseudomonas aeruginosa [7].
Regarding `CCOC(=O)c1cn(C2CC2)c2cc(N3CCN(CCn4c([N+](=O)[O-])cnc4C)CC3)c(F)cc2c1=O`, the ED50 in the assay on Escherichia coli [9] fell in the range of 3.5 to 13.2 mg/kg.
On the same count and under the same terms, for `Cc1ncc([N+](=O)[O-])n1CCN1CCN(c2cc3c(cc2F)c(=O)c(C(=O)O)cn3C2CC2)CC1` the value was 2.56 to 3.88 mg/kg.
Turning to `Cc1ncc([N+](=O)[O-])n1CC(O)CN1C(=O)c2cccc3c(N4CCN(CC#N)CC4)ccc(c23)C1=O` (stereo not given), the minimal inhibitory concentration (MIC) against Acinetobacter baumannii fell in the range of 13 to 1020 µM (≈ 6.55 to 514 µg/mL); in the assay with Escherichia coli [1] it was 13 to 1020 µM; with Staphylococcus aureus [2], 13 to 1020 µM (≈ 6.55 to 514 µg/mL); against Escherichia coli [3], 13 to 1020 µM (≈ 6.55 to 514 µg/mL); against Enterococcus faecalis it was 13 to 1020 µM (≈ 6.55 to 514 µg/mL); against Staphylococcus aureus [4] it was 13 to 1020 µM (≈ 6.55 to 514 µg/mL). The MIC was 13 to 1020 µM with Pseudomonas aeruginosa [5], 13 to 1020 µM (≈ 6.55 to 514 µg/mL) against Staphylococcus aureus [6], 13 to 1020 µM (≈ 6.55 to 514 µg/mL) against Klebsiella pneumoniae and 13 to 1020 µM (≈ 6.55 to 514 µg/mL) with Pseudomonas aeruginosa [7].
`CC(=O)N1N=C(Cn2c([N+](=O)[O-])cnc2C)OC1c1ccc([N+](=O)[O-])cc1` (stereo not given): the MIC in the assay on Escherichia coli [1] lay within 0.25 to 0.5 mg/L; against Staphylococcus aureus [8], 0.25 to 0.5 mg/L (≈ 0.668 to 1.34 µM); against Pseudomonas aeruginosa [5], 0.25 to 0.5 mg/L; in the assay with Candida albicans, 0.25 to 0.5 mg/L (≈ 0.668 to 1.34 µM); in the assay with Bacillus subtilis it was 0.25 to 0.5 mg/L (≈ 0.668 to 1.34 µM).
